Patent US11433057B2, “Method for improving or enhancing cognition” (VANDA PHARMACEUTICALS INC., priority 2016, dated 2022)

Assays:
Type in all cases: in vivo, human
[1] = system: patients with findings consistent with mild AD or amnestic MCI; assay: CANTAB Paired Associates Learning (PAL), 4-week placebo-controlled study; details: 15 mg daily oral, study day 1
Protocol: (§1) The following example illustrates the methods of the invention, in which a 4-week, parallel-group, randomized, double-blind, placebo-controlled, adaptive proof of concept study of AQW051 at up to three dose levels for the treatment of patients with findings consistent with mild Alzheimer's disease (AD) or Mild Cognitive Impairment (amnestic MCI) was conducted in two stages.
(§2) To assess AQW051 as a cognitive enhancer, as measured by selected tests [Paired Associates Learning (PAL), Spatial Working Memory (SWM), Rapid Visual Information Processing (RVP)] from the Cambridge Neuropsychological Test Automated Battery (CANTAB) computerized cognitive test battery, in patients with findings consistent with mild AD or amnestic MCI.
(§3) The investigational drug AQW51 was provided as either 0.5 mg, 5 mg, or 25 mg capsules. In stage I only 5 mg capsules were used. All groups received 15 mg of AQW051 daily for 4 weeks.
(§4) On Day 1, 8, 15, 22 and 28, the study drug was administered by study personnel and was taken orally with 240 ml of water after light breakfast. On all other study treatment days, patients self-administered the study medication in the morning after light breakfast.
(§5) The different CANTAB readouts were analyzed separately by rank analyses of covariance, including “treatment” and “stratum” (MCI, AD) as fixed effects and the corresponding baseline value as covariate. The comparison of interest was the contrast between active treatment and placebo; tests were performed to the one-sided 10% level without multiplicity-adjustment. Point and interval estimates were produced by the baseline-adjusted stratified Hodges-Lehmann method. In addition, sensitivity analyses were performed using standard analyses of covariance, to complement the aforementioned nonparametric methods. The items “errors at the 6 pattern stage” and “total trials adjusted” of the PAL task at day 28 played a key role at the interim analysis. At the end of stage 1, the conditional power of the study to reach an overall significant result in both these key endpoints at the final analysis was estimated by bootstrap methods. The different scores from the ADAS-Cog, QoL-AD, the DAD and the MMSE were analyzed using standard analyses of covariance. Safety and tolerability variables measures were analyzed by means of descriptive statistics.

[2] = system: patients with findings consistent with mild AD or amnestic MCI; assay: Adverse events, safety analysis set, 4-week placebo-controlled study; details: 15 mg daily oral, 4 weeks
Protocol: as §1
To explore the safety and tolerability of AQW051 in patients with findings consistent with mild AD or amnestic MCI.
as §3, §4, §5
Under one treatment, a subject with multiple occurrences of an adverse event is counted only once in the AE category. N=number of subject studied; n=number of subjects with at least 1 AE in the category. Only adverse events occurring at or after first drug intake are included.

[3] = system: patients with findings consistent with mild AD or amnestic MCI; assay: CANTAB Graded Naming Test-Revised (GNT), 4-week placebo-controlled study; details: 15 mg daily oral; study day 28; PD analysis set N=54; p=0.8191
Protocol: as §1
(§6) To explore effects of AQW051 on other cognitive functions not assessed by the primary measures (CANTAB tests Pattern Recognition Memory (PRM), Choice Reaction Time (CRT), Graded Naming Test-Revised (GNT).
as §3
On Day 1, 8, 15, 22 and 28, the study drug was administered by study personnel and was taken orally with 240 ml of water after light breakfast. […]
(§7) The different CANTAB readouts were analyzed separately by rank analyses of covariance, including “treatment” and “stratum” (MCI, AD) as fixed effects and the corresponding baseline value as covariate. […] The different scores from the ADAS-Cog, QoL-AD, the DAD and the MMSE were analyzed using standard analyses of covariance. Safety and tolerability variables measures were analyzed by means of descriptive statistics.

[4] = system: patients with findings consistent with mild AD or amnestic MCI; assay: CANTAB Pattern Recognition Memory (PRM), 4-week placebo-controlled study; details: 15 mg daily oral, study day 28, PD analysis set N=54
Protocol: as §1, §6, §3, §4, §5

[5] = system: patients with findings consistent with mild AD or amnestic MCI; assay: CANTAB Spatial Working Memory (SWM), 4-week placebo-controlled study; details: 15 mg daily oral, study day 28
Protocol: as §1, §2, §3, §4, §5

[6] = system: patients with findings consistent with mild AD or amnestic MCI; assay: CANTAB Rapid Visual Information Processing (RVP), 4-week placebo-controlled study; details: 15 mg daily oral, study day 1
Protocol: as §1, §2
The investigational drug AQW51 was provided as either 0.5 mg, 5 mg, or 25 mg capsules. In stage I only 5 mg capsules were used. All groups received 15 mg of AQW051 daily for 4 weeks. […]
as §7

[7] = system: patients with findings consistent with mild AD or amnestic MCI; assay: CANTAB Choice Reaction Time (CRT), 4-week placebo-controlled study; details: 15 mg daily oral, study day 28
Protocol: as §1, §6, §3, §4, §5

Cc1ccc(-c2ccc(O[C@H]3CN4CCC3CC4)cn2)cc1 [AQW051, (R)-3-(6-p-tolyl-pyridin-3-yloxy)-1-aza-bicyclo[2.2.2]octane]
PAL of total errors (2 shapes adj), Difference AQW051 15 mg vs. Placebo ([1]; MCI patient only N=38, p=0.0239): 0
PAL total trials (adj), Difference AQW051 15 mg vs. Placebo ([1]; MCI patient only N=38, p=0.0877): −1.5
PAL total errors (2 shapes adj), Difference AQW051 15 mg vs. Placebo ([1]; all patients N=54, p=0.0142): 0
PAL total errors (6 shapes adj), Difference AQW051 15 mg vs. Placebo ([1]; all patients N=54, p=0.0840): −2
PAL total trials (adj), Difference AQW051 15 mg vs. Placebo ([1]; all patients N=54, p=0.0846): −1
Flatulence related to study drug, (%) ([2]; AD N = 7): 14.3%
Patients with AE(s) related to study drug, (%) ([2]; AD N = 7): 14.3%
Constipation related to study drug, (%) ([2]; MCI N = 20): 5.0%
Dysgraphia related to study drug, (%) ([2]; MCI N = 20): 5.0%
Headache related to study drug, (%) ([2]; MCI N = 20): 10.0%
Increased tendency to bruise related to study drug, (%) ([2]; MCI N = 20): 5.0%
Muscle spasms related to study drug, (%) ([2]; MCI N = 20): 5.0%
Pain in extremity related to study drug, (%) ([2]; MCI N = 20): 5.0%
Patients with AE(s) related to study drug, (%) ([2]; MCI N = 20): 15.0%
Pruritus related to study drug, (%) ([2]; MCI N = 20): 5.0%
Bronchitis AE, (%) of subjects ([2]; N = 27): (3.7) %
Bronchitis AE, n of subjects ([2]; N = 27): 1
Chalazion AE, (%) of subjects ([2]; N = 27): (3.7) %
Chalazion AE, n of subjects ([2]; N = 27): 1
Constipation AE, (%) of subjects ([2]; N = 27): (3.7) %
Constipation AE, n of subjects ([2]; N = 27): 1
Dysgraphia AE, (%) of subjects ([2]; N = 27): (3.7) %
Dysgraphia AE, n of subjects ([2]; N = 27): 1
Ear and Labyrinth disorders AEs, (%) of subjects ([2]; N = 27): (3.7) %
Ear and Labyrinth disorders AEs, n of subjects ([2]; N = 27): 1
Epistaxis AE, (%) of subjects ([2]; N = 27): (3.7) %
Epistaxis AE, n of subjects ([2]; N = 27): 1
Eye disorders AEs, (%) of subjects ([2]; N = 27): (3.7) %
Eye disorders AEs, n of subjects ([2]; N = 27): 1
Flatulence AE, (%) of subjects ([2]; N = 27): (3.7) %
Flatulence AE, n of subjects ([2]; N = 27): 1
Gastrointestinal disorders AEs, (%) of subjects ([2]; N = 27): (7.4) %
Gastrointestinal disorders AEs, n of subjects ([2]; N = 27): 2
Headache AE, (%) of subjects ([2]; N = 27): (7.4) %
Headache AE, n of subjects ([2]; N = 27): 2
Hepatic function abnormal AE, (%) of subjects ([2]; N = 27): (3.7) %
Hepatic function abnormal AE, n of subjects ([2]; N = 27): 1
Hepatobiliary disorders AEs, (%) of subjects ([2]; N = 27): (3.7) %
Hepatobiliary disorders AEs, n of subjects ([2]; N = 27): 1
Increased tendency to bruise AE, (%) of subjects ([2]; N = 27): (3.7) %
Increased tendency to bruise AE, n of subjects ([2]; N = 27): 1
Infections and infestations AEs, (%) of subjects ([2]; N = 27): (11.1) %
Infections and infestations AEs, n of subjects ([2]; N = 27): 3
Laryngitis AE, (%) of subjects ([2]; N = 27): (3.7) %
Laryngitis AE, n of subjects ([2]; N = 27): 1
Muscle spasms AE, (%) of subjects ([2]; N = 27): (3.7) %
Muscle spasms AE, n of subjects ([2]; N = 27): 1
Musculoskeletal and connective tissue disorders AEs, (%) of subjects ([2]; N = 27): (7.4) %
Musculoskeletal and connective tissue disorders AEs, n of subjects ([2]; N = 27): 2
Nasopharyngitis AE, (%) of subjects ([2]; N = 27): (3.7) %
Nasopharyngitis AE, n of subjects ([2]; N = 27): 1
Nervous system disorders AEs, (%) of subjects ([2]; N = 27): (7.4) %
Nervous system disorders AEs, n of subjects ([2]; N = 27): 2
Pain in extremity AE, (%) of subjects ([2]; N = 27): (7.4) %
Pain in extremity AE, n of subjects ([2]; N = 27): 2
Patients with AEs, (%) of subjects ([2]; N = 27): (40.7) %
Patients with AEs, n of subjects ([2]; N = 27): 11
Pruritus AE, (%) of subjects ([2]; N = 27): (3.7) %
Pruritus AE, n of subjects ([2]; N = 27): 1
Respiratory, thoracic and mediastinal disorders AEs, (%) of subjects ([2]; N = 27): (3.7) %
Respiratory, thoracic and mediastinal disorders AEs, n of subjects ([2]; N = 27): 1
Skin and subcutaneous disorders AEs, (%) of subjects ([2]; N = 27): (7.4) %
Skin and subcutaneous disorders AEs, n of subjects ([2]; N = 27): 2
Skin lesion AE, (%) of subjects ([2]; N = 27): (3.7) %
Skin lesion AE, n of subjects ([2]; N = 27): 1
Tympanic membrane perforation AE, (%) of subjects ([2]; N = 27): (3.7) %
Tympanic membrane perforation AE, n of subjects ([2]; N = 27): 1
Constipation related to study drug, (%) ([2]; Total N = 27): 3.7%
Dysgraphia related to study drug, (%) ([2]; Total N = 27): 3.7%
Flatulence related to study drug, (%) ([2]; Total N = 27): 3.7%
Headache related to study drug, (%) ([2]; Total N = 27): 7.4%
Increased tendency to bruise related to study drug, (%) ([2]; Total N = 27): 3.7%
Muscle spasms related to study drug, (%) ([2]; Total N = 27): 3.7%
Pain in extremity related to study drug, (%) ([2]; Total N = 27): 3.7%
Patients with AE(s) related to study drug, (%) ([2]; Total N = 27): 14.8%
Pruritus related to study drug, (%) ([2]; Total N = 27): 3.7%
GNT Total correct, Difference, AQW051 15 mg vs. placebo [3]: −1.5
PRM Percent correct delayed, Difference, AQW051 15 mg vs. placebo ([4]; p=0.4244): 0
PRM Mean correct latency delayed, Difference, AQW051 15 mg vs. placebo ([4]; p=0.7864): 150 ms
PRM Percent correct immediate, Difference, AQW051 15 mg vs. placebo ([4]; p=0.8090): −4
PRM Mean correct latency immediate, Difference, AQW051 15 mg vs. placebo ([4]; p=0.8328): 198 ms
SWM Between errors (6 boxes), Difference AQW051 15 mg vs. Placebo ([5]; MCI patient only N=38, p=0.0290): −2.5
SWM Between errors, Difference AQW051 15 mg vs. Placebo ([5]; MCI patient only N=38, p=0.0845): −5
SWM Between errors (6 boxes), Difference AQW051 15 mg vs. Placebo ([5]; all patients N=54, p=0.0430): −2
SWM Between errors, Difference AQW051 15 mg vs. Placebo ([5]; all patients N=54, p=0.0701): −3.5
SWM Between errors (4 boxes), Difference AQW051 15 mg vs. Placebo ([5]; all patients N=54, p=0.0866): −0.5
RVP Mean latency, Difference AQW051 15 mg vs. Placebo ([6]; MCI patient only N=38, p=0.0419): −22
RVP Mean latency, Difference AQW051 15 mg vs. Placebo ([6]; all patients N=54, p=0.0292): −21.5
CRT Percent correct trials, Difference AQW051 15 mg vs. Placebo ([7]; MCI patient only N=38, p=0.0918): 0.5
CRT Median latency, Difference, AQW051 15 mg vs. placebo ([7]; MCI patient only N=38, p=0.0966): −23
CRT Median latency, Difference, AQW051 15 mg vs. placebo ([7]; PD analysis set N=54, p=0.3273): −9.5
CRT Percent correct trials, Difference AQW051 15 mg vs. Placebo ([7]; all patients N=54, p=0.0632): 0.5
